{"source": "patent US6962706B1", "about": "“Synthetic peptides containing protective epitopes for the treatment and prevention of periodontitis associated with porphyromonas gingivalis” (The University of Melbourne, priority 1999, dated 2005)", "data": [{"test_system": "serum IgG antibody (protective mouse sera, patient sera D20, D24, H10)", "test": "Epitope mapping ELISA of PIN-bound PrtR27 overlapping peptides with human and mouse antisera", "format": "binding", "conditions": "PIN-bound overlapping 13 mer peptides, antisera diluted 1:1000, O.D. 450 nm", "source_text": "FIG. 6: Serum IgG antibody responses assessed by ELISA to Porphyromonas gingivalis PrtR-27 overlapping peptides (SEQ ID NOs:13-24, 33, and 25-32, respectively, from origin). Twenty one PIN-bound peptides were probed with normal mouse sera (▪), protective mouse sera (□), normal human serum (▪), patient D24 sera (▪), patient H10 sera (▪) and patient D20 sera (▪). ELISAs were developed as per Example 1.\nTwenty overlapping 13 mer peptides (overlay by 6 and offset by 7 residues) corresponding to the N-terminal 148 residues of the PrtR27 were synthesised by Chiron Technologies (Melbourne, Australia) using the multipin peptide synthesis system. The sequence of the N-terminal 148 residues of the PrtR27 adhesin is as follows: • […] (SEQ ID NO: 12). The overlapping peptides synthesised were: • […] (SEQ ID NO:13) • […] (SEQ ID NO:14) • […] (SEQ ID NO:15) • […] (SEQ ID NO:16) • […] (SEQ ID NO:17) • […] (SEQ ID NO:18) • […] (SEQ ID NO:19) • […] (SEQ ID NO:20) • […] (SEQ ID NO:21) • […] (SEQ ID NO:22) • […] (SEQ ID NO:23) • […] (SEQ ID NO:24) • […] (SEQ ID NO:25) • […] (SEQ ID NO:26) • […] (SEQ ID NO:27) • […] (SEQ ID NO:28) • […] (SEQ ID NO:29) • […] (SEQ ID NO:30) • […] (SEQ ID NO:31) • […] (SEQ ID NO:32).\nEpitope mapping of the pin-bound peptides was carried out by ELISA as per Chiron Technologies instructions using the human and mouse proteinase antisera at a dilution of 1:1000 in 1% w/v non-fat skim milk powder in 0.1M phosphate buffered saline, pH 7.4, containing 0.1% v/v Tween 20. The bound antibody was detected by incubating the peptide-PINS with 0.4 mM 3,3′,5,5′-tetramethylbenzidine in 0.1M sodium acetate/citric acid buffer containing 0.004% v/v H2O2. Colour development was stopped by the addition of 2M H2SO4. Optical density (O.D.) was measured at 450 nm using a BioRad microplate reader model 450.", "values": [{"sequence": "TNPEPASGKMWIAGDGGNQP (listed as Porphyromonas gingivalis) [EP4]", "Antibody binding of PrtR27 regions in ELISA (FIG. 6)": "bind antibody"}, {"sequence": "FLLDADHNTFGSVIPATGPLFTGTASS (listed as Porphyromonas gingivalis) [EP1]", "Antibody binding of PrtR27 regions in ELISA (FIG. 6)": "bind antibody"}, {"sequence": "RYDDFTFEAGKKYTFTMRRAGMGDGTD (listed as Porphyromonas gingivalis) [EP5]", "Antibody binding of PrtR27 regions in ELISA (FIG. 6)": "bind antibody"}, {"sequence": "LYSANFESLIPANADPVVTTQNIIVTG (listed as Porphyromonas gingivalis) [EP2]", "Antibody binding of PrtR27 regions in ELISA (FIG. 6)": "bind antibody"}]}]}
